Reference: patent US8178119B2, “Method for the acaricidal finishing of textile materials” (Sanitized AG, priority 2004, dated 2012)

Tests used:
Type in all cases: in vivo
house dust mites [1] = experiment: Method 1: live adult house dust mites counted on the textile sample after 6 or 8 weeks, change versus initial value
Description: (§1) The textile sample is cut to a size of 8×8 cm and placed on a glass plate of the same size. About 50 house dust mites in the adult stage, which were counted under the microscope, were placed in the center of the sample. Other stages were likewise present of course but are not counted. Some food (see method 2) is added. A 5 mm thick rubber plate with a 30 mm diameter hole in the middle is placed on the sample. The hole is covered from the top with a filter paper, and a metal plate with a hole in the middle is placed on the filter paper such that the hole is congruently positioned above the hole in the rubber plate. The sample plates thus prepared are fixed with clips and are then incubated for 6 or 8 weeks in an incubator at saturated humidity at 25° C. […] In this method, the change in the number of mites compared with the initial value is calculated. The test is carried out in duplicate. • 2. The AFNOR NF G 39-011 test method, as carried out for example by TEC Laboratory, […], again utilizes 50 adult house dust mites, Dermatophagoides pteronyssinus, per test sample, which come from a stock culture from INRA Bordeaux and were bred for several years at 76% humidity at 25° C. in the complete absence of insecticides. The mites were fed on a mixture of wheat germ and brown brewer's yeast. The test is carried out at 17 to 23° C. The test duration is six weeks, and the mites are counted after they were driven out by application of heat. The test is carried out in quadruplicate. The reduction in the number of mites after six weeks compared with a non-finished control sample is determined.

house dust mites [2] = experiment: Effect against house dust mites, method not stated (one of the two methods); conditions: for cuts in the number of mites: without zinc pyrithione, at concentrations normally used for antimicrobial finishing, reduction to zero mites not quite achieved; for growth in the population of mites by a factor: control factor 2.6
From the text: On polyurethane foams based on polyester polyol, 2000 ppm of zinc pyrithione allowed a growth in the population of mites by a factor of 1.6, which is only insignificantly less than the corresponding control sample at a factor of 2.6. In the case of plasticized PVC, even 3000 ppm of zinc pyrithione allowed a growth in the population of mites by a factor of 1.4, while the PVC control sample returned a growth of again by a factor of 2.6. Both values are insufficient for the protection of the finished articles against colonization by mites, but they do form the basis for enhancement of the protection without the complete effect having to be supplied by the other active, permethrin for example.
Testing of the effect against house dust mites was carried out in the experiments according to one of the two methods described hereinbelow: • 1. The textile sample is cut to a size of 8×8 cm and placed on a glass plate of the same size. About 50 house dust mites in the adult stage, which were counted under the microscope, were placed in the center of the sample. Other stages were likewise present of course but are not counted. Some food (see method 2) is added. A 5 mm thick rubber plate with a 30 mm diameter hole in the middle is placed on the sample. The hole is covered from the top with a filter paper, and a metal plate with a hole in the middle is placed on the filter paper such that the hole is congruently positioned above the hole in the rubber plate. The sample plates thus prepared are fixed with clips and are then incubated for 6 or 8 weeks in an incubator at saturated humidity at 25° C. After the period of 6 or 8 weeks, the living adult mites were again counted under the microscope. In this method, the change in the number of mites compared with the initial value is calculated. The test is carried out in duplicate. • 2. The AFNOR NF G 39-011 test method, as carried out for example by TEC Laboratory, F-64600 Anglet, again utilizes 50 adult house dust mites, Dermatophagoides pteronyssinus, per test sample, which come from a stock culture from INRA Bordeaux and were bred for several years at 76% humidity at 25° C. in the complete absence of insecticides. The mites were fed on a mixture of wheat germ and brown brewer's yeast. The test is carried out at 17 to 23° C. The test duration is six weeks, and the mites are counted after they were driven out by application of heat. The test is carried out in quadruplicate. The reduction in the number of mites after six weeks compared with a non-finished control sample is determined.

[3] = test system: Dermatophagoides pteronyssinus; experiment: Method 2: AFNOR NF G 39-011 test, reduction in number of mites after six weeks versus non-finished control; conditions: cotton/polyester mattress ticking
Description: as §1

Row | Compound | reduction in the number of live mites, average (house dust mites [1]; Example 11: 1000 ppm on cotton, 6 weeks, control growth rate 273%) | reduction in the number of live mites (house dust mites [1]; Example 11: 1400 ppm on polyester furniture covering fabric, 6 weeks, control growth rate 273%) | cuts in the number of mites (house dust mites [2]) | live mites on samples after the test (house dust mites [1]; Example 3: 1.0% of aqueous dispersion comprising 15% zinc pyrithione padded with 3% NUVA TTC or 4% NUVA HPU or 4% NUVA HPC onto cotton, polyester or polyamide, cured 150° C. 90 seconds) | live mites on samples after the test (house dust mites [1]; Example 6: 0.4% of aqueous formulation comprising 48% zinc pyrithione padded with wetting agent and nonionized surfactant onto woven cotton, dried 180° C. 1 minute) | mite inhibition rate (MIR) compared with the non-finished control fabric, average ([3]; Example 5: 1.0% of formulation comprising 15% zinc pyrithione with 3% to 5% acrylate copolymers) | mites on samples after the test ([3]; Example 5: 1.2% of formulation comprising 15% zinc pyrithione with 3% to 5% acrylate copolymers) | mites on samples after the test ([3]; Example 5: 1.5% of formulation comprising 15% zinc pyrithione with 3% to 5% acrylate copolymers) | growth in the population of mites by a factor (house dust mites [2]; plasticized PVC, 3000 ppm of zinc pyrithione) | growth in the population of mites by a factor (house dust mites [2]; polyurethane foams based on polyester polyol, 2000 ppm of zinc pyrithione)
1 | Oc1cc(Cl)ccc1Oc1ccc(Cl)cc1Cl [triclosan] | 57% | 38% | fairly good cuts in the number of mites |  |  |  |  |  |  | 
2 | zinc pyrithione |  |  |  | no longer any live mites | no longer any live mites | 99.3% | completely free of mites | completely free of mites | 1.4 | 1.6
3 | CCCCCCCCn1sccc1=O [2-n-octylisothiazolin-3-one] |  |  | fairly good cuts in the number of mites |  |  |  |  |  |  | 
